Target: ERRα ligand binding domain (ERRα-LBD) (Homo sapiens (Human), UniProt P11474)
Assay: ERRα AlphaScreen Assay
Type: biochemical
Settings: disruption of binding of ERRα-LBD protein to biotin-PGC1α-3 co-activator peptide; for IC50: read-out: mean pIC50 (converted)
How it was run: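 His-SUMO-tagged ERRα-LBD from E. coli (0.81 nM) preincubated 1 h at room temperature with compound, streptavidin donor and Ni-chelate acceptor beads (10 μg/mL each), then 2 h with 15 nM biotin-PGC1α-3 peptide (aa 202–220). Buffer: 50 mM Tris-HCl pH 7.5, 100 mM NaCl, 5 mM TCEP, 1% DMSO. Four-parameter IC50; mean pIC50 of replicate values.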

Chain of ERRα ligand binding domain (ERRα-LBD) (P11474 193-421): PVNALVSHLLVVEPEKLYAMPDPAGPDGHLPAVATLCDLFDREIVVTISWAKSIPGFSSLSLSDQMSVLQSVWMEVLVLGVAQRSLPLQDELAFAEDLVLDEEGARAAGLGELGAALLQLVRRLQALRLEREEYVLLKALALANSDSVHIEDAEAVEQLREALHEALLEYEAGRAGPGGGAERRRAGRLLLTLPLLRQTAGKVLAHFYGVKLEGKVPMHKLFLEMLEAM

IC50 | mean pIC50 | Compound
10 to 100 nM | – | COc1cc(C2CC(=O)Nc3c[nH]nc32)ccc1OCc1ccc(CCO)cc1C(F)(F)F (stereo not drawn) [Example 156, 7-(4-{[4-(2-hydroxyethyl)-2-(trifluoromethyl)phenyl]methoxy}-3-methoxyphenyl)-2H,4H,5H,6H, 7H-pyrazolo[4,3-b]pyridin-5-one]
10 to 100 nM | – | COC(=O)c1ccccc1COc1ccc(C2CC(=O)Nc3n[nH]cc32)cc1OC (stereo not drawn) [Example 26, methyl 2-(2-methoxy-4-{6-oxo-2H,4H,5H,6H,7H-pyrazolo[3,4-b]pyridin-4-yl}phenoxymethyl)benzoate]
100 to 1000 nM | – | COc1cc(C2CC(=O)Nc3n[nH]cc32)ccc1COc1ccc(C(F)F)cc1C(F)F (single isomer, unassigned; (+)) [Example 217, (+)-4-(4-{[2,4-bis(difluoromethyl)phenoxy]methyl}-3-methoxyphenyl)-2H,4H,5H,6H,7H-pyrazolo[3,4-b]pyridin-6-one]
100 to 1000 nM | – | O=C1CC(c2ccc(OCc3ccccc3Br)cc2)c2c[nH]nc2N1 (stereo not drawn) [Example 58, 4-{4-[(2-bromophenyl)methoxy]phenyl}-2H,4H,5H,6H,7H-pyrazolo[3,4-b]pyridin-6-one]
10 to 100 nM | – | CCOC(=O)c1cc(C2CC(=O)Nc3n[nH]cc32)ccc1OCc1ccccc1C(F)(F)F (stereo not drawn) [Example 128, ethyl 5-{6-oxo-2H,4H,5H,6H,7H-pyrazolo[3,4-b]pyridin-4-yl}-2-{[2-(trifluoromethyl)phenyl]methoxy}benzoate]
10 to 100 nM | – | COc1cc(C2CC(=O)Nc3n[nH]cc32)ccc1COc1ccc(C)cc1C(F)(F)F (single isomer, unassigned; (+)) [Example 213, (+)-4-(3-methoxy-4-{[4-methyl-2-(trifluoromethyl)phenoxy]methyl}phenyl)-2H,4H,5H,6H,7H-pyrazolo[3,4-b]pyridin-6-one]
100 to 1000 nM | – | COc1cc(C2CC(=O)Nc3n[nH]cc32)ccc1OCc1cccc2c1OC(C)(C)C2 (stereo not drawn) [Example 46, 4-{4-[(2,2-dimethyl-2,3-dihydro-1-benzofuran-7-yl)methoxy]-3-methoxyphenyl}-2H,4H,5H,6H, 7H-pyrazolo[3,4-b]pyridin-6-one]
100 to 1000 nM | – | COc1cc(C2CC(=O)Nc3n[nH]cc32)cc(F)c1OCc1ccccc1C(F)(F)F (stereo not drawn) [Example 78, 4-(3-fluoro-5-methoxy-4-{[2-(trifluoromethyl)phenyl]methoxy}phenyl)-2H,4H,5H,6H, 7H-pyrazolo[3,4-b]pyridin-6-one]
100 to 1000 nM | – | COc1cc(C2CC(=O)Nc3n[nH]cc32)ccc1OCc1cccc(Cl)c1Cl (stereo not drawn) [Example 22, 4-{4-[(2,3-dichlorophenyl)methoxy]-3-methoxyphenyl}-2H,4H,5H,6H,7H-pyrazolo[3,4-b]pyridin-6-one]
100 to 1000 nM | – | COc1cc(C2CC(=O)Nc3n[nH]cc32)ccc1OCc1cccc2cccnc12 (stereo not drawn) [Example 47, 4-{3-methoxy-4-[(quinolin-8-yl)methoxy]phenyl}-2H,4H,5H,6H, 7H-pyrazolo[3,4-b]pyridin-6-one]
100 to 1000 nM | – | COc1cc(C2CC(=O)Nc3ccsc32)ccc1OCc1ccccc1Cl (stereo not drawn) [Example 79, 7-{4-[(2-chlorophenyl)methoxy]-3-methoxyphenyl}-4H,5H,6H, 7H-thieno[3,2-b]pyridin-5-one]
100 to 1000 nM | – | O=C1CC(c2ccc(OCc3ccccc3C(F)(F)F)c(C(=O)Nc3nnc[nH]3)c2)c2c[nH]nc2N1 (stereo not drawn) [Example 131, 5-{6-oxo-2H, 4H,5H, 6H, 7H-pyrazolo[3,4-b]pyridin-4-yl}-N-(4H-1,2,4-triazol-3-yl)-2-{[2-(trifluoromethyl)phenyl]methoxy}benzamide]
10 to 100 nM | – | COc1cc(C2CC(=O)Nc3n[nH]cc32)ccc1COc1ccc(C)cc1C (stereo not drawn) [Example 111, 4-{4-[(2,4-dimethylphenoxy)methyl]-3-methoxyphenyl}-2H,4H,5H,6H,7H-pyrazolo[3,4-b]pyridin-6-one]
100 to 1000 nM | – | COc1cc(C2CC(=O)Nc3n[nH]cc32)ccc1OCc1ccccc1[N+](=O)[O-] (stereo not drawn) [Example 18, 4-{3-methoxy-4-[(2-nitrophenyl)methoxy]phenyl}-2H,4H,5H,6H, 7H-pyrazolo[3,4-b]pyridin-6-one]
– | ≥ 8 | COc1cc(C2CC(=O)Nc3n[nH]cc32)ccc1OCc1ccc(N)cc1C(F)(F)F (stereo not drawn) [Example 135, 4-(4-{[4-amino-2-(trifluoromethyl)phenyl]methoxy}-3-methoxyphenyl)-2H,4H,5H,6H, 7H-pyrazolo[3,4-b]pyridin-6-one]
10 to 100 nM | – | Cc1cc(C2CC(=O)Nc3n[nH]cc32)ccc1OCc1ccccc1C(F)(F)F (stereo not drawn) [Example 73, 4-(3-methyl-4-{[2-(trifluoromethyl)phenyl]methoxy}phenyl)-2H,4H,5H,6H,7H-pyrazolo[3,4-b]pyridin-6-one]
10 to 100 nM | – | COc1cc(C2CC(=O)Nc3n[nH]cc32)ccc1OCc1ccccc1OC(F)F (stereo not drawn) [Example 17, 4-(4-{[2-(difluoromethoxy)phenyl]methoxy}-3-methoxyphenyl)-2H,4H,5H,6H,7H-pyrazolo[3,4-b]pyridin-6-one]

IC50 | mean pIC50 | Compound
100 to 1000 nM | – | COc1cc(C2CC(=O)Nc3n[nH]cc32)ccc1OCc1cccc(OCCO)c1C(F)(F)F (stereo not drawn) [Example 160, 4-(4-{[3-(2-hydroxyethoxy)-2-(trifluoromethyl)phenyl]methoxy}-3-methoxyphenyl)-2H,4H,5H,6H,7H-pyrazolo[3,4-b]pyridin-6-one]
10 to 100 nM | – | O=C1CC(c2ccc(OCc3ccccc3C(F)(F)F)c(Cl)c2)c2c[nH]nc2N1 (stereo not drawn) [Example 72, 4-(3-chloro-4-{[2-(trifluoromethyl)phenyl]methoxy}phenyl)-2H,4H,5H,6H, 7H-pyrazolo[3,4-b]pyridin-6-one]
– | ≥ 8 | COc1cc(C2CC(=O)Nc3n[nH]nc32)ccc1OCc1ccc(N)cc1C(F)(F)F (stereo not drawn) [Example 136, 7-(4-{[4-amino-2-(trifluoromethyl)phenyl]methoxy}-3-methoxyphenyl)-2H,4H,5H,6H, 7H-[1,2,3]triazolo[4,5-b]pyridin-5-one]
100 to 1000 nM | – | COc1cc(C2CC(=O)Nc3n[nH]cc32)ccc1OCc1cc(Cl)cc(Cl)c1Cl (stereo not drawn) [Example 31, 4-{3-methoxy-4-[(2,3,5-trichlorophenyl)methoxy]phenyl}-2H,4H,5H,6H,7H-pyrazolo[3,4-b]pyridin-6-one]
100 to 1000 nM | – | O=C1CC(c2ccc(OCc3ccccc3C(F)(F)F)cn2)c2c[nH]nc2N1 (stereo not drawn) [Example 63, 4-(5-{[2-(trifluoromethyl)phenyl]methoxy}pyridin-2-yl)-2H,4H,5H,6H, 7H-pyrazolo[3,4-b]pyridin-6-one]
10 to 100 nM | – | C#Cc1ccccc1COc1ccc(C2CC(=O)Nc3n[nH]cc32)cc1OC (stereo not drawn) [Example 44, 4-{4-[(2-ethynylphenyl)methoxy]-3-methoxyphenyl}-2H,4H,5H,6H,7H-pyrazolo[3,4-b]pyridin-6-one]
10 to 100 nM | – | COc1cc(C2CC(=O)Nc3n[nH]cc32)ccc1COc1ccc(C(F)(F)F)cc1C(F)F (stereo not drawn) [Example 117, 4-(4-{[2-(difluoromethyl)-4-(trifluoromethyl)phenoxy]methyl}-3-methoxyphenyl)-2H,4H,5H,6H, 7H-pyrazolo[3,4-b]pyridin-6-one]
10 to 100 nM | – | COc1cc(C2CC(=O)Nc3n[nH]nc32)ccc1OCc1ccc(N)cc1C(F)(F)F (single isomer, unassigned; (-)) [Example 206, (−)-7-(4-{[4-amino-2-(trifluoromethyl)phenyl]methoxy}-3-methoxyphenyl)-2H,4H,5H,6H,7H-[1,2,3]triazolo[4,5-b]pyridin-5-one]
10 to 100 nM | – | O=C1CC(c2ccc(OCc3ccccc3C(F)(F)F)c(OC(F)(F)F)c2)c2c[nH]nc2N1 (stereo not drawn) [Example 69, 4-[3-(trifluoromethoxy)-4-{[2-(trifluoromethyl)phenyl]methoxy}phenyl]-2H,4H,5H, 6H, 7H-pyrazolo[3,4-b]pyridin-6-one]
10 to 100 nM | – | COc1cc(C2CC(=O)Nc3n[nH]cc32)ccc1OCc1ccccc1Cl (stereo not drawn) [Example 2, 4-{4-[(2-chlorophenyl)methoxy]-3-methoxyphenyl}-2H,4H,5H,6H,7H-pyrazolo[3,4-b]pyridin-6-one]
10 to 100 nM | – | COc1cc(C2CC(=O)Nc3n[nH]cc32)c(F)cc1OCc1ccccc1C(F)(F)F (stereo not drawn) [Example 75, 4-(2-fluoro-5-methoxy-4-{[2-(trifluoromethyl)phenyl]methoxy}phenyl)-2H,4H,5H, 6H, 7H-pyrazolo[3,4-b]pyridin-6-one]
– | ≥ 8 | COc1cc(C2CC(=O)Nc3n[nH]cc32)ccc1OCc1ccc(C(C)=O)cc1C(F)(F)F (stereo not drawn) [Example 41, 4-(4-{[4-acetyl-2-(trifluoromethyl)phenyl]methoxy}-3-methoxyphenyl)-2H,4H,5H,6H, 7H-pyrazolo[3,4-b]pyridin-6-one]
10 to 100 nM | – | O=C1CC(c2ccc(COc3ccc(C(F)(F)F)cc3C(F)(F)F)c(OC(F)(F)F)c2)c2c[nH]nc2N1 (stereo not drawn) [Example 109, 4-(4-{[2,4-bis(trifluoromethyl)phenoxy]methyl}-3-(trifluoromethoxy)phenyl)-2H,4H,5H,6H,7H-pyrazolo[3,4-b]pyridin-6-one]
100 to 1000 nM | – | COC(=O)C1C(=O)Nc2n[nH]cc2C1c1ccc(COc2ccc(C(F)(F)F)cc2C(F)(F)F)c(OC)c1 (stereo not drawn) [Example 187, methyl 4-(4-{[2,4-bis(trifluoromethyl)phenoxy]methyl}-3-methoxyphenyl)-6-oxo-2H,4H,5H,6H, 7H-pyrazolo[3,4-b]pyridine-5-carboxylate]
10 to 100 nM | – | O=C1CC(c2ccc(OCc3ccccc3C(F)(F)F)c(F)c2)c2c[nH]nc2N1 (stereo not drawn) [Example 74, 4-(3-fluoro-4-{[2-(trifluoromethyl)phenyl]methoxy}phenyl)-2H,4H,5H,6H, 7H-pyrazolo[3,4-b]pyridin-6-one]
10 to 100 nM | – | COc1cc(C2CC(=O)Nc3c[nH]nc32)ccc1OCc1ccccc1C(F)(F)F (stereo not drawn) [Example 87, 7-(3-methoxy-4-{[2-(trifluoromethyl)phenyl]methoxy}phenyl)-2H,4H,5H,6H, 7H-pyrazolo[4,3-b]pyridin-5-one]

Source: patent US12527774B2, “Estrogen-related receptor alpha modulators” (LEAD PHARMA HOLDING B.V., priority 2019, dated 2026)
